These results are taken from ChEMBL document CHEMBL1125698, “Using theoretical descriptors in quantitative structure-activity relationships: some toxicological indices” (J Med Chem, 1991).

Structures are written as SMILES.

Data set [1] can be described thus: Toxicity determined using Tadpole Narcosis Test. To be noted: frog.
Data set [2] is described as follows: Toxicity determined using Konemann's Industrial Pollutants Toxicity Test. To be noted: fish.
Data set [3] is described as follows: Toxicity determined using Golden Orfe Fish Test. To be noted: leuciscus idus.
Data set [4] relates to Lithobates pipiens. The experiment in a line: Inhibition of Rana pipiens muscle activity. The class given is functional, frog, Muscle tissue.
Data set [5] is described as follows: The toxicity of compound was determined using Konemann's Industrial Pollutants Toxicity Test.
The nature of data set [6]: Toxicity determined using Microtox Test. Format: ADME, Bacteria.

For `c1ccc2ccccc2c1`, the “Log C” value in data set [1] is reported as -4.225.
As for `Cc1cc(Cl)c(Cl)cc1Cl`, the “Log LC50” value in data set [2] came to 0.94.
Consider `C=CCCC`, for which the “Log C” value in data set [1] was -2.364.
On the same count and under the same terms, under `CCOC(=O)C(C)C` stands -2.3.
Take `Clc1cc(Cl)c(Cl)c(Cl)c1`: the “Log LC50” value in data set [2] is 0.57.
On to `CC(Cl)CCl` (stereo not given), for which the “Log LC50” value in data set [2] came out at 3.01.
With `CCCC(=O)OCC`, the “Log C” value in data set [1] is given as -2.367.
Turning to `CCC(=O)CC`, the “Log C” value in data set [1] was -1.861.
As to `CCCC(C)=O`, in data set [1], the “Log C” value is reported as -1.785.
As for `Clc1cc(Cl)c(Cl)cc1Cl`, in data set [2], the “Log LC50” value was 0.15.
Same read-out and setting: the same measure for `Clc1cccc(Cl)c1Cl`: 1.11.
On to `c1ccc2c(c1)ccc1ccccc12`, for which the “Log C” value in data set [1] was -5.791.
Still for that read-out and setting: the same measure for `CCCCOC(=O)CCCC`: -3.504.
`CCCCC(=O)OCC`: the “Log C” value in data set [1] was -2.716.
Take `CCCCOCCCC`: the “Log LC50” value in data set [3] is on record as -0.303.
With `ClC(Cl)C(Cl)Cl` [1,1,2,2-TETRACHLOROETHANE], the “Log LC50” value in data set [2] is on record as 2.34.
`ClCCCl` [1,2-DICHLOROETHANE]: the “Log C” value in data set [1] is listed as -2.374.
With `Clc1cc(Cl)cc(Cl)c1` [1,3,5-TRICHLOROBENZENE], the “Log LC50” value in data set [2] turned out to be 1.26.
With `CCCCCCCO` [1-HEPTANOL], the “Log MBC” value in data set [4] came to 0.2. In addition, in data set [3], the “Log LC50” value is recorded as -0.163.
With `CCCCCCO` [1-HEXANOL], the “Log MBC” value in data set [4] came to 0.56. Also, the “Log LC50” value in data set [3] is reported as -0.315.
Take `CCCCCO` [1-PENTANOL]: in data set [4], the “Log MBC” value is 1.2.
On to `CCCCC(C)O` (stereo not given) [2-HEXANOL], for which the “Log LC50” value in data set [3] is given as -0.359.
As to `CCCC(C)O` (stereo not given) [2-PENTANOL], the “Log C” value in data set [1] is -1.861.
As for `CCC(O)CC` [3-PENTANOL], in data set [2], the “Log LC50” value was found to be 4.05.
Turning to `CCCCOC(C)=O` [ACETIC ACID BUTYL ESTER], in data set [1], the “Log C” value was -2.374.
With `CC(=O)OCC(C)C` [ACETIC ACID ISOBUTYL ESTER], the “Log C” value in data set [1] was -2.33.
The same measure, in the same setting: the same measure for `CCCCCOC(C)=O` [ACETIC ACID PENTYL ESTER]: -2.727; for `CCCOC(C)=O` [ACETIC ACID PROPYL ESTER]: -1.969.
For the compound `CC(C)=O` [ACETONE], in data set [1], the “Log C” value was -0.924. Besides, in data set [4], the “Log MBC” value was found to be 2.6. In addition, the “Log LC50” value is recorded as -2.259 in data set [3] and 5.04 in data set [5].
With `CC#N` [ACETONITRILE], the “Log LC50” value in data set [3] is given as -2.227.
Consider `CC(=O)c1ccccc1` [ACETOPHENONE], for which, in data set [1], the “Log C” value is on record as -2.891.
`CCO` [ALCOHOL]: the “Log C” value in data set [1] was -0.484. Moreover, the “Log LC50” value in data set [2] turned out to be 5.38. Moreover, in data set [4], the “Log MBC” value came out at 2.75.
For `CCC(C)(C)O` [AMYLENE HYDRATE], in data set [1], the “Log C” value is -1.859. The “Log LC50” value in data set [3] is -0.907.
On to `Nc1ccccc1` [ANILINE], for which the “Log MBC” value in data set [4] is 1.3.
Turning to `COc1ccccc1` [ANISOLE], the “Log C” value in data set [1] is recorded as -2.493. In addition, the “Log LC50” value in data set [3] is on record as -0.305.
With `c1ccccc1` [BENZENE], the “Log C” value in data set [1] is given as -2.905. Moreover, the entries for the “Log LC50” value in data set [3] and in data set [5] were -0.417 and 2.91, respectively.
Take `OCc1ccccc1` [BENZYL ALCOHOL]: in data set [4], the “Log MBC” value is 1.3.
Same read-out and setting: under `Oc1ccc2ccccc2c1` [BETANAPHTHOL] stands 0.
For `CBr` [BROMOMETHANE], in data set [1], the “Log C” value is reported as -2.263.
For `CCC(C)O` (stereo not given) [BUTANOL], in data set [1], the “Log C” value is on record as -1.433. In addition, the “Log LC50” value in data set [3] is listed as -1.477.
Take `CCC(C)=O` [BUTANONE]: the “Log C” value in data set [1] came to 1.401. Further, the “Log LC50” value in data set [3] is given as -1.663.
For the compound `CCCCO` [BUTYL ALCOHOL], the “Log C” value in data set [1] is recorded as -1.463. In addition, in data set [4], the “Log MBC” value is listed as 1.78. Further, the “Log LC50” value in data set [3] is recorded as -1.432.
As for `CCCCCl` [BUTYL CHLORIDE], the “Log LC50” value in data set [2] came out at 3.02.
As for `ClC(Cl)(Cl)Cl` [CARBON TETRACHLORIDE], the “Log EC50” value in data set [6] is recorded as -0.22.
As to `Clc1ccccc1` [CHLOROBENZENE], in data set [2], the “Log LC50” value amounted to 2.23.
`ClC(Cl)Cl` [CHLOROFORM]: in data set [1], the “Log C” value was -3.065. In addition, the “Log MBC” value in data set [4] was 1.5.
As to `O=C1CCCCC1` [CYCLOHEXANONE], in data set [3], the “Log LC50” value is recorded as -0.66.
As for `OC1CCCC1` [CYCLOPENTANOL], the “Log LC50” value in data set [3] is -0.97.
Regarding `O=C1CCCC1` [CYCLOPENTANONE], the “Log LC50” value in data set [3] was -1.359.
As for `CCOCC` [ETHER], in data set [1], the “Log C” value is -1.389. Also, the “Log MBC” value in data set [4] is reported as 1.93. Further, the “Log LC50” value was -1.722 in data set [3] and 4.46 in data set [5].
In the case of `CCOC=O` [ETHOXYCARBONYL GROUP], in data set [1], the “Log C” value is -1.111.
The same measure, in the same setting: the same measure for `CCOC(C)=O` [ETHYL ACETATE]: -1.502.
On the same count and under the same terms, under `CCCl` [ETHYL CHLORIDE] stands -1.655.
Same read-out and setting: under `CCOC(=O)CC` [ETHYL PROPIONATE] stands -1.898; under `COC=O` [FORMIC ACID METHYL ESTER], -1.075.
For the compound `CCCC(O)CC` (stereo not given) [HEXAN-3-OL], the “Log LC50” value in data set [3] is reported as -0.363.
Take `CC(C)CO` [ISOBUTANOL]: the “Log LC50” value in data set [3] is -1.43.
Consider `CC(C)O` [ISOPROPYL ALCOHOL], for which the “Log C” value in data set [1] was -0.977. Moreover, the “Log MBC” value in data set [4] turned out to be 2.55. For the same compound, the “Log LC50” value in data set [3] is -2.005; in data set [5] it was 5.07.
For `Cc1cccc(C)c1` [M-XYLENE], the “Log LC50” value in data set [2] was 2.55.
Consider `Cc1cccc(O)c1` [METACRESOL], for which the “Log LC50” value in data set [3] was -0.694.
As to `CO` [METHYL ALCOHOL], the “Log C” value in data set [1] came to 0.17. For the same compound, the “Log MBC” value in data set [4] came out at 3.09.
Regarding `ClCCl` [METHYLENE CHLORIDE], the “Log LC50” value in data set [2] stood at 3.54.
In the case of `O=[N+]([O-])c1ccccc1` [NITROBENZENE], the “Log MBC” value in data set [4] is on record as 0.47. Further, the “Log LC50” value in data set [3] is -0.263.
`C[N+](=O)[O-]` [NITROMETHANE]: the “Log C” value in data set [1] is given as -1.08.
For `Cc1ccccc1C` [O-XYLENE], the “Log C” value in data set [1] was -3.44. In data set [2], the “Log LC50” value came out at 2.52.
Turning to `CCCCCCCCO` [OCTANOL], the “Log C” value in data set [1] is -3.148. In data set [4], the “Log MBC” value is recorded as -0.016. Also, the “Log LC50” value in data set [3] was -0.594.
`CCCCC` [PENTANE]: the “Log C” value in data set [1] is reported as -2.649.
Take `Oc1ccccc1` [PHENOL]: the “Log MBC” value in data set [4] is on record as 1. Moreover, the “Log LC50” value in data set [3] is reported as -0.256.
For `CCCO` [PROPANOL], the “Log C” value in data set [1] is -1.021. For the same compound, in data set [4], the “Log MBC” value is listed as 2.4. In data set [3], the “Log LC50” value is reported as -1.972.
For `c1ccncc1` [PYRIDINE], the “Log MBC” value in data set [4] turned out to be 1.77.
The same measure, in the same setting: under `c1ccc2ncccc2c1` [QUINOLINE] stands 0.3.
As to `CC(C)(C)O` [TERT-BUTANOL], in data set [1], the “Log C” value is recorded as -1.429.
As to `C1CCOC1` [TETRAHYDROFURAN], in data set [3], the “Log LC50” value is given as -1.815.
As to `Cc1ccc(C(C)C)c(O)c1` [THYMOL], the “Log C” value in data set [1] was -3.574. Also, in data set [4], the “Log MBC” value is on record as -0.52.
On to `Cc1ccccc1` [TOLUENE], for which, in data set [2], the “Log LC50” value came to 2.87. Also, the “Log MBC” value in data set [4] was 1.
As for `CC(Cl)(Cl)Cl` [TRICHLOROETHANE], the “Log LC50” value was 2.85 in data set [2] and -0.087 in data set [3].
In the case of `ClC=C(Cl)Cl` [TRICHLOROETHYLENE], the “Log LC50” value in data set [3] is -0.293.
